The source of these data is ChEMBL document CHEMBL1141366, “Isolation of quinic acid derivatives and flavonoids from the aerial parts of Lactuca indica L. and their hepatoprotective activity in vitro” (Bioorg Med Chem Lett, 2007).

Assay [1] deals with Hepatitis B virus. Briefly: Hepatoprotective activity against HBV in human HepG2.2.15 cells. It is filed as functional, organism-based. As to conditions: HepG2 2.2.15.
For assay [2], the system named is Hepatitis B virus. Briefly: Antiviral activity against hepatitis B virus assessed as inhibition of viral particle production. It is filed as functional, organism-based.

Activity calls are given as the source filed them. The rule behind the calls is not given here.

As for `O=c1c(O[C@@H]2O[C@H](CO)[C@@H](O)[C@H](O)[C@H]2O)c(-c2ccc(O)c(O)c2)oc2cc(O)cc(O)c12`, the outcome in the assay on Hepatitis B virus [1] and with Hepatitis B virus [2] was Active.
With `O=C(/C=C/c1ccc(O)c(O)c1)O[C@@H]1C[C@](O)(C(=O)O)C[C@@H](OC(=O)/C=C/c2ccc(O)c(O)c2)[C@H]1O`, the outcome with Hepatitis B virus [1] and in the assay with Hepatitis B virus [2] was Active.
In the case of `O=C(/C=C/c1ccc(O)c(O)c1)O[C@@H]1C[C@@](O)(C(=O)O)C[C@@H](O)[C@@H]1O`, the result with Hepatitis B virus [1] and in the assay on Hepatitis B virus [2] was Active.
As to `O=C(/C=C/c1ccc(O)c(O)c1)O[C@@H]1C[C@](O)(C(=O)O)C[C@@H](O)[C@H]1O`, the outcome with Hepatitis B virus [1] and in the assay with Hepatitis B virus [2] was Active.
With `O=C(/C=C/c1ccc(O)c(O)c1)O[C@@H]1[C@H](O)C[C@@](O)(C(=O)O)C[C@H]1OC(=O)/C=C/c1ccc(O)c(O)c1`, the result in the assay on Hepatitis B virus [1] and in the assay with Hepatitis B virus [2] was Active.
As to `O=C(/C=C/c1ccc(O)cc1)O[C@@H]1C[C@](O)(C(=O)O)C[C@@H](O)[C@H]1O`, the outcome with Hepatitis B virus [1] and with Hepatitis B virus [2] was Active.
`O=C(/C=C/c1ccc(O)c(O)c1)O[C@H]1[C@H](O)C[C@](O)(C(=O)O)C[C@H]1OC(=O)/C=C/c1ccc(O)c(O)c1`: the result with Hepatitis B virus [1] and with Hepatitis B virus [2] was Active.
